Laboratory results: US20070049564A1 (Wyeth, priority 2005, published 2007)
Values after ≈ are worked out from the molar mass of the structure shown. Like-named read-outs stand apart in the source and are kept apart here.

Legend:
[1] = tested on: Staph.; assay: Range of MIC for Staph. strains, including MRSA; conditions: Staphylococcus aureus, MRSA
[2] = tested on: E. coli GC 2271; assay: MIC, broth microdilution; conditions: Escherichia coli, GC2271, E. coli GC 2271
[3] = tested on: E. coli GC 2236; assay: MIC, broth microdilution; conditions: Escherichia coli, GC2236, E. coli GC 2236
[4] = tested on: E. faecium GC 2243; assay: MIC, broth microdilution; conditions: Enterococcus faecium, GC2243, E. faecium GC 2243
[5] = tested on: E. coli GC 2231; assay: MIC, broth microdilution; conditions: Escherichia coli, GC2231, E. coli GC 2231
[6] = tested on: S. aureus GC 6469; assay: MIC, broth microdilution; conditions: Staphylococcus aureus, GC6469, S. aureus GC 6469
[7] = tested on: E. coli GC 2232; assay: MIC, broth microdilution; conditions: Escherichia coli, GC2232, E. coli GC 2232
[8] = tested on: E. coli GC 2233; assay: MIC, broth microdilution; conditions: Escherichia coli, GC2233, E. coli GC 2233
[9] = tested on: S. aureus GC 6335; assay: MIC, broth microdilution; conditions: Staphylococcus aureus, GC6335, S. aureus GC 6335
[10] = tested on: P. aeruginosa GC 2214; assay: MIC, broth microdilution; conditions: Pseudomonas aeruginosa, GC2214, P. aeruginosa GC 2214
[11] = tested on: S. aureus GC 2216; assay: MIC, broth microdilution; conditions: Staphylococcus aureus, GC2216, S. aureus GC 2216
[12] = tested on: S. pyogenes GC 4563; assay: MIC, broth microdilution; conditions: Streptococcus pyogenes, GC4563, S. pyogenes GC 4563
[13] = tested on: S. aureus GC 6466; assay: MIC, broth microdilution; conditions: Staphylococcus aureus, GC6466, S. aureus GC 6466
[14] = tested on: E. coli GC 2270; assay: MIC, broth microdilution; conditions: Escherichia coli, GC2270, E. coli GC 2270
[15] = tested on: E. coli GC 2203; assay: MIC, broth microdilution; conditions: Escherichia coli, GC2203, E. coli GC 2203
[16] = tested on: E. coli; assay: Range of MIC for E. coli strains; conditions: Escherichia coli
[17] = tested on: E. faecalis GC 2265; assay: MIC, broth microdilution; conditions: Enterococcus faecalis, GC2265, E. faecalis GC 2265
[18] = tested on: E. coli GC 3226; assay: MIC, broth microdilution; conditions: Escherichia coli, GC3226, E. coli GC 3226
[19] = tested on: E. faecium GC 4556; assay: MIC, broth microdilution; conditions: Enterococcus faecium, GC4556, E. faecium GC 4556
[20] = tested on: E. coli GC 2234; assay: MIC, broth microdilution; conditions: Escherichia coli, GC2234, E. coli GC 2234

Compound: CCCN(CC(=O)Nc1cc(N(C)C)c2c(c1O)C(=O)C1=C(O)[C@]3(O)C(=O)C(C(N)=O)=C(O)[C@@H](N(C)C)[C@@H]3C[C@@H]1C2)C(=O)OCOC(=O)c1ccc(OC)cc1 [Example 6, ({[(2-{[(5aR,6aS,7S,10aS)-9-(aminocarbonyl)-4,7-bis(dimethylamino)-1,8,10a,11-tetrahydroxy-10,12-dioxo-5,5a,6,6a,7,10,10a,12-octahydrotetracen-2-yl]amino}-2-oxoethyl)(propyl)amino]carbonyl}oxy)methyl 4-methoxybenzoate]
- MIC ([1]; read-out: Range of MIC, Staph (Mouse Serum)): 0.5 to 2 µg/mL (≈ 0.641 to 2.56 µM)
- MIC ([1]; read-out: Range of MIC, Staph (Water)): 1 to 4 µg/mL (≈ 1.28 to 5.13 µM)
- MIC ([1]; read-out: Range of MIC, Staph. (mouse serum)): 0.5 to 2 µg/mL (≈ 0.641 to 2.56 µM)
- MIC ([1]; read-out: Range of MIC, Staph. (water)): 1 to 4 µg/mL (≈ 1.28 to 5.13 µM)
- MIC ([2]; Mouse Serum pre-incubation): 1 µg/mL (≈ 1.28 µM)
- MIC ([2]; Water pre-incubation): 8 µg/mL (≈ 10.3 µM)
- MIC ([3]; Mouse Serum pre-incubation): 2 µg/mL (≈ 2.56 µM)
- MIC ([3]; Water pre-incubation): 8 µg/mL (≈ 10.3 µM)
- MIC ([4]; Mouse Serum pre-incubation): 0.5 µg/mL (≈ 0.641 µM)
- MIC ([4]; Water pre-incubation): 2 µg/mL (≈ 2.56 µM)
- MIC ([5]; Mouse Serum pre-incubation): 2 µg/mL (≈ 2.56 µM)
- MIC ([5]; Water pre-incubation): 64 µg/mL (≈ 82.1 µM)
- MIC ([6]; Mouse Serum pre-incubation): 2 µg/mL (≈ 2.56 µM)
- MIC ([6]; Water pre-incubation): 4 µg/mL (≈ 5.13 µM)
- MIC ([7]; Mouse Serum pre-incubation): 2 µg/mL (≈ 2.56 µM)
- MIC ([7]; Water pre-incubation): 32 µg/mL (≈ 41 µM)
- MIC ([8]; Mouse Serum pre-incubation): 2 µg/mL (≈ 2.56 µM)
- MIC ([8]; Water pre-incubation): 16 µg/mL (≈ 20.5 µM)
- MIC ([9]; Mouse Serum pre-incubation): 0.5 µg/mL (≈ 0.641 µM)
- MIC ([9]; Water pre-incubation): 2 µg/mL (≈ 2.56 µM)
- MIC ([10]; Mouse Serum pre-incubation): 32 µg/mL (≈ 41 µM)
- MIC ([10]; Water pre-incubation): > 64 µg/mL
- MIC ([11]; Mouse Serum pre-incubation): 0.5 µg/mL (≈ 0.641 µM)
- MIC ([11]; Water pre-incubation): 2 µg/mL (≈ 2.56 µM)
- MIC ([12]; Mouse Serum pre-incubation): 0.25 µg/mL (≈ 0.321 µM)
- MIC ([12]; Water pre-incubation): 0.25 µg/mL (≈ 0.321 µM)
- MIC ([13]; Mouse Serum pre-incubation): 0.25 µg/mL (≈ 0.321 µM)
- MIC ([13]; Water pre-incubation): 1 µg/mL (≈ 1.28 µM)
- MIC ([14]; Mouse Serum pre-incubation): 1 µg/mL (≈ 1.28 µM)
- MIC ([14]; Water pre-incubation): 8 µg/mL (≈ 10.3 µM)
- MIC ([15]; Mouse Serum pre-incubation): 2 µg/mL (≈ 2.56 µM)
- MIC ([15]; Water pre-incubation): 16 µg/mL (≈ 20.5 µM)
- MIC ([16]; 20 h, read-out: Range of MIC, E. coli (Mouse Serum)): 1 to 2 µg/mL (≈ 1.28 to 2.56 µM)
- MIC ([16]; read-out: Range of MIC, E. coli (Water)): 8 to 64 µg/mL (≈ 10.3 to 82.1 µM)
- MIC ([16]; read-out: Range of MIC, E. coli (mouse serum)): 1 to 2 µg/mL (≈ 1.28 to 2.56 µM)
- MIC ([16]; read-out: Range of MIC, E. coli (water)): 8 to 64 µg/mL (≈ 10.3 to 82.1 µM)
- MIC ([17]; Mouse Serum pre-incubation): 2 µg/mL (≈ 2.56 µM)
- MIC ([17]; Water pre-incubation): 4 µg/mL (≈ 5.13 µM)
- MIC ([18]; Mouse Serum pre-incubation): 2 µg/mL (≈ 2.56 µM)
- MIC ([18]; Water pre-incubation): 16 µg/mL (≈ 20.5 µM)
- MIC ([19]; Mouse Serum pre-incubation): 1 µg/mL (≈ 1.28 µM)
- MIC ([19]; Water pre-incubation): 2 µg/mL (≈ 2.56 µM)
- MIC ([20]; Mouse Serum pre-incubation): 1 µg/mL (≈ 1.28 µM)
- MIC ([20]; Water pre-incubation): 16 µg/mL (≈ 20.5 µM)
